For assay [1], the target named is T1, Therminator II DNA polymerase (Thermococcus sp., UniProt Q56366, A485L/D141A/E143A/Y409V).
T1 construct: purchased New England BioLabs
Briefly: Ladder fragment generation with natural dNTPs and one 3′-O-propargyl-dNTP. The settings on record: natural dNTPs plus one 3′-O-propargyl-dNTP, KRAS template, 50 cycles. It counts as biochemical, Thermococcus sp. 9∘N. As to the method: During the development of embodiments of the technology provided herein, experiments were conducted to assess using the nucleotide analogs of the present technology to generate nucleic acid fragments that terminate at base-specific positions. In particular, reaction mixtures were produced and tested that included both natural dNTPs and each of the 3′-O-propargyl-dNTPs individually.
To test the fragment generation by 3′-O-propargyl-dTTP, a DNA fragment generation reaction mix was prepared comprising 20 mM Tris-HCl, 10 mM (NH4)SO4, 10 mM KCl, 2 mM MnCl2, 0.1% Triton X-100, 1000 μmol dATP, 1000 μmol dCTP, 1000 μmol dGTP, 1000 μmol dTTP, 200 μmol 3′-O-propargyl-dTTP, 6.25 μmol of primer R_ke2_trP1_T_bio (SEQ ID NO: 2), and 2 units of THERMINATOR II DNA polymerase (New England BioLabs) in a 25-μl final reaction volume. A volume of 0.5 μmol of the KRAS template (SEQ ID NO: 1) was used as template. The polymerase extension reaction was performed using a temperature cycling profile comprising exposing the reaction to a temperature of 95° C. for 2 minutes followed by 50 cycles of 95° C. for 15 seconds, 55° C. for 25 seconds, and 65° C. for 35 seconds.
(§1) After the polymerase extension reaction, 1 μl of the reaction mix was used directly for nucleic acid size analysis by gel electrophoresis (e.g., using an Agilent 2100 Bioanalyzer and High Sensitivity DNA Assay Chip).
Additional polymerase extension experiments were performed using the reaction conditions described above and replacing the 3′-O-propargyl-dTTP with 3′-O-propargyl-dATP, 3′-O-propargyl-dCTP, or 3′-O-propargyl dGTP.

The target in assay [2] is T1, Therminator II DNA polymerase. The assay is described as follows: Polymerase extension assay: incorporation of 3′-O-propargyl-dNTP at the 3′ end of a primer on KRAS template. In kind it is biochemical, Thermococcus sp. 9∘N. The settings on record: 2 mM MnCl2, KRAS template, 35 cycles, size analysis by gel electrophoresis. As for the experimental part:
During the development of embodiments of the technology provided herein, experiments were conducted to assess the incorporation of 3′-O-propargyl-dNTPs into a nucleic acid by a polymerase. In particular, experiments were conducted to evaluate the accurate incorporation of 3′-O-propargyl-dNTPs into a nucleic acid and to evaluate the terminating activity of the 3′-O-propargyl-dNTPs. To assess these characteristics of the nucleotide analogs provided herein, polymerase extension assays were conducted using a template nucleic acid having a sequence from human KRAS (e.g., KRAS exon 2 and flanking intron sequences) and a complementary primer (Table 2).
To test incorporation of a 3′-O-propargyl-dTTP into a nucleic acid, a polymerase extension reaction mix was assembled comprising 20 mM Tris-HCl, 10 mM (NH4)SO4, 10 mM KCl, 2 mM MnCl2, 0.1% Triton X-100, 200 μmol 3′-O-propargyl-dTTP, 6.25 μmol of primer R_ke2_trP1_T_bio (SEQ ID NO: 2), and 2 units of Therminator II DNA polymerase (New England BioLabs) in a 25-μl final reaction volume. A volume of 0.5 μmol of the KRAS template (SEQ ID NO: 1) was used as template (Table 2). The polymerase extension reaction was performed using a temperature cycling profile comprising exposing the reaction to a temperature of 95° C. for 2 minutes followed by 35 cycles of 95° C. for 15 seconds, 55° C. for 25 seconds, and 65° C. for 35 seconds.
as §1
Additional polymerase extension experiments were performed using the reaction conditions described above and replacing the 3′-O-propargyl-dTTP and the primer R_ke2_trP1_T_bio with 3′-O-propargyl-dATP and the primer R_ke2_trP1_A bio (SEQ ID NO: 3); 3′-O-propargyl-dCTP and the primer R_ke2_trP1_C bio (SEQ ID NO: 5); and 3′-O-propargyl dGTP and the primer R_ke2_trP1_G bio (SEQ ID NO: 4).

The test system of assay [3] is 3′-O-propargyl-dNTP. The assay is described as follows: Polymerase screening by nucleotide extension assay (incorporation of 3′-O-propargyl-dNTP as substrate). It counts as biochemical. Also noted: key: a minus (“−”) indicates that the polymerase did not produce a detectable product incorporating the 3′-O-propargyl dNTP; a single plus (“+”) indicates that the polymerase produced a detectable product incorporating the 3′-O-propargyl dNTP; three plusses (“+++”) indicates that the polymerase produced a substantial amount of 3′-O-propargyl dNTP incorporation product. The text has this: For example, in some exemplary assays and/or embodiments, compatible polymerases are identified by a polymerase extension reaction (e.g., a single base extension reaction). See, e.g., Ausebel et al. (eds.), Current Protocols in Molecular Biology. New York: John Wiley & Sons, Inc; Sambrook et al. (1989). Molecular Cloning: A Laboratory Manual. (2nd ed.). Cold Spring Harbor: Cold Spring Harbor Laboratory Press.
For example, identifying compatible polymerases comprises providing a polymerase to test and a reaction buffer appropriate for the polymerase. For polymerases obtained from a commercial supplier (e.g., New England BioLabs, United States Biologicals, Promega, Invitrogen, Worthington, Sigma-Aldrich, Fluka, Finnzymes, Roche, 5 Prime, Qiagen, KAPA Biosystems, Thermo Scientific, Agilent, Life Technologies, etc.), the polymerase is often supplied with an appropriate reaction buffer. An exemplary reaction buffer comprises, e.g., a compatible buffer (e.g., 20 mM Tris-HCl), a salt (e.g., 10 mM KCl), a source of magnesium or manganese (e.g., 2 mM MgSO4; 2 mM MnCl2, etc.), a detergent (e.g., 0.1% TRITON X-100) and has a suitable pH (e.g., approximately pH 8.8 at approximately 25° C.). The activities of some polymerases are improved in the presence of other compounds, such as sulfate and other salts (e.g., 10 mM (NH4)2SO4). Reaction mixtures for polymerase extension reactions are typically tested using Mg^2+ or Mn^2+ as the enzyme cofactor.
Polymerases are tested by providing in the reaction mixture a DNA template, a DNA primer that is complementary to the DNA template, and one or more nucleotides and/or nucleotide analogs. Typical concentrations of template and primer are approximately from 1 to 100 nM and typical concentrations of nucleotides and/or nucleotide analogs are approximately from 1 to 125 μM (e.g., 1 to 125 μM for each nucleotide and/or nucleotide analog and/or 1 to 500 μM total concentration of all nucleotides and/or nucleotide analogs). Templates and primers are synthesized by methods known in the art (e.g., using solid supports and phosphoramidite chemistry) and are available from several commercial suppliers (e.g., Integrated DNA Technologies, Coralville, Iowa).
A pre-annealed primer/template is typically produced for testing polymerases. For example, the primer is typically resuspended in a suitable buffer (e.g., Tris-EDTA, pH 8.0) at a suitable concentration, e.g., at 1 to 500 μM (e.g., at 100 μM) and the template is typically resuspended in a suitable buffer (e.g., Tris-EDTA, pH 8.0) at a suitable concentration, e.g., at 1 to 500 μM (e.g., at 100 μM). […] For example, a pre-annealed primer/template is produced by mixing approximately 100 μl of the approximately 1 to 500 μM (e.g., at 100 μM) primer solution to approximately 100 μl of the approximately 1 to 500 μM (e.g., at 100 μM) template solution in approximately 800 μl of an annealing buffer (e.g., 200 mM Tris, 100 mM potassium chloride, and 0.1 mM EDTA, pH 8.45) to provide a milliliter of primer/template solution. One of skill in the art can scale the volumes and concentrations as appropriate for the concentrations and volumes that are appropriate for the particular analysis. Then, an aliquot (e.g., 100 μl) of the primer/template solution is heated to denature intramolecular and/or intermolecular secondary structures (e.g., by heating at approximately 85° C. to 97° C. (e.g., at approximately 95° C.), e.g., for 1 to 5 minutes (e.g., 2 minutes). Next, the aliquot is cooled to an annealing temperature (e.g., 20° C. to 60° C. (e.g., 25° C.) and incubated for 1 to 10 minutes (e.g., for approximately 5 minutes) to allow the primer and template to anneal to form a primer/template. The primer/template can be diluted in an appropriate substrate dilution buffer (e.g., 20 mM Tris, 10 mM potassium chloride, and 0.01 mM EDTA, pH 8.45; e.g., a 1 to 10 dilution of the annealing buffer described above) for storage. […]

T1 sequence (Q56366 whole entry D141A/E143A/Y409V/A485L): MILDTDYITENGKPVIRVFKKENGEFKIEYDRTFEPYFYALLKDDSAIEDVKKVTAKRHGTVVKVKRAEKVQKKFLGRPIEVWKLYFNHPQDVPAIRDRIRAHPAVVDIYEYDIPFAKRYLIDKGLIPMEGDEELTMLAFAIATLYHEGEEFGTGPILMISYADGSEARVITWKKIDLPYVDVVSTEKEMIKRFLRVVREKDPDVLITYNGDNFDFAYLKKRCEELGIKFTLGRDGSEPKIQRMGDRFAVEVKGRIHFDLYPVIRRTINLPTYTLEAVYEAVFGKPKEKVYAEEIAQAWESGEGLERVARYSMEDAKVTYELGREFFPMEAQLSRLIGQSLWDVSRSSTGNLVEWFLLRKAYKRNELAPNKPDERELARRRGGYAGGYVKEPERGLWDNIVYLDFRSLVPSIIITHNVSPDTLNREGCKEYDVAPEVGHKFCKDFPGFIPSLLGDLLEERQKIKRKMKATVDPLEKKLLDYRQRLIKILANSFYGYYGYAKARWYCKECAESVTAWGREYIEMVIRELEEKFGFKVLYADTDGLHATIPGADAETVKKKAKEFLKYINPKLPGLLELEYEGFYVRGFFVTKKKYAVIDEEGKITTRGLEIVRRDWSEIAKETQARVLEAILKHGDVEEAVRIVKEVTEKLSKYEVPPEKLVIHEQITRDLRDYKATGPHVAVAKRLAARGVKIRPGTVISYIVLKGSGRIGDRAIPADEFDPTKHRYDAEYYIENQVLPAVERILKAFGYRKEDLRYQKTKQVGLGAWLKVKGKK

Regarding `C#CCO[C@H]1C[C@H](n2cnc3c(N)ncnc32)O[C@@H]1COP(=O)(O)OP(=O)(O)OP(=O)(O)O` [3′-O-propargyl-dATP, 3′-O-propargyl-2′-deoxyadenosine-5′-triphosphate], in assay [1], the “generation of nucleic acid fragments terminated at base-specific positions” value is “generated populations of nucleic acid fragments having a range of sizes corresponding to the expected lengths”. Besides, the “incorporation at the 3′ end of the primer” value in assay [2] is recorded as “successful incorporation”.
In the same order, the values of `C#CCO[C@H]1C[C@H](n2ccc(N)nc2=O)O[C@@H]1COP(=O)(O)OP(=O)(O)OP(=O)(O)O` [3′-O-propargyl-dCTP, 3′-O-propargyl-2′-deoxycytidine-5′-triphosphate] are “generated populations of nucleic acid fragments having a range of sizes corresponding to the expected lengths” and “successful incorporation”.
In the case of “Amplitaq Gold: polymerase enzyme sold under the trade name Ampli-Taq (Life Technologies)”, the “product incorporating the 3′-O-propargyl dNTP” value in assay [3] (co-factor Mg^2+) and in assay [3] (co-factor Mn^2+) was “−” in each case.

B1: rTth: rTth DNA polymerase (protein, UniProt P52028 1-834, looked up)
DNA polymerase I, thermostable: MEAMLPLFEPKGRVLLVDGHHLAYRTFFALKGLTTSRGEPVQAVYGFAKSLLKALKEDGYKAVFVVFDAKAPSFRHEAYEAYKAGRAPTPEDFPRQLALIKELVDLLGFTRLEVPGYEADDVLATLAKKAEKEGYEVRILTADRDLYQLVSDRVAVLHPEGHLITPEWLWEKYGLRPEQWVDFRALVGDPSDNLPGVKGIGEKTALKLLKEWGSLENLLKNLDRVKPENVREKIKAHLEDLRLSLELSRVRTDLPLEVDLAQGREPDREGLRAFLERLEFGSLLHEFGLLEAPAPLEEAPWPPPEGAFVGFVLSRPEPMWAELKALAACRDGRVHRAADPLAGLKDLKEVRGLLAKDLAVLASREGLDLVPGDDPMLLAYLLDPSNTTPEGVARRYGGEWTEDAAHRALLSERLHRNLLKRLEGEEKLLWLYHEVEKPLSRVLAHMEATGVRLDVAYLQALSLELAEEIRRLEEEVFRLAGHPFNLNSRDQLERVLFDELRLPALGKTQKTGKRSTSAAVLEALREAHPIVEKILQHRELTKLKNTYVDPLPSLVHPRTGRLHTRFNQTATATGRLSSSDPNLQNIPVRTPLGQRIRRAFVAEAGWALVALDYSQIELRVLAHLSGDENLIRVFQEGKDIHTQTASWMFGVPPEAVDPLMRRAAKTVNFGVLYGMSAHRLSQELAIPYEEAVAFIERYFQSFPKVRAWIEKTLEEGRKRGYVETLFGRRRYVPDLNARVKSVREAAERMAFNMPVQGTAADLMKLAMVKLFPRLREMGARMLLQVHDELLLEAPQARAEEVAALAKEAMEKAYPLAVPLEVEVGMGEDWLSAKG
For B1, the “product incorporating the 3′-O-propargyl dNTP” value in assay [3] (co-factor Mg^2+) and in assay [3] (co-factor Mn^2+) was “−” each time.

B2: 9° N: 9∘N DNA Polymerase (NEB) (protein, UniProt Q56366 1-775, looked up)
DNA polymerase: MILDTDYITENGKPVIRVFKKENGEFKIEYDRTFEPYFYALLKDDSAIEDVKKVTAKRHGTVVKVKRAEKVQKKFLGRPIEVWKLYFNHPQDVPAIRDRIRAHPAVVDIYEYDIPFAKRYLIDKGLIPMEGDEELTMLAFDIETLYHEGEEFGTGPILMISYADGSEARVITWKKIDLPYVDVVSTEKEMIKRFLRVVREKDPDVLITYNGDNFDFAYLKKRCEELGIKFTLGRDGSEPKIQRMGDRFAVEVKGRIHFDLYPVIRRTINLPTYTLEAVYEAVFGKPKEKVYAEEIAQAWESGEGLERVARYSMEDAKVTYELGREFFPMEAQLSRLIGQSLWDVSRSSTGNLVEWFLLRKAYKRNELAPNKPDERELARRRGGYAGGYVKEPERGLWDNIVYLDFRSLYPSIIITHNVSPDTLNREGCKEYDVAPEVGHKFCKDFPGFIPSLLGDLLEERQKIKRKMKATVDPLEKKLLDYRQRAIKILANSFYGYYGYAKARWYCKECAESVTAWGREYIEMVIRELEEKFGFKVLYADTDGLHATIPGADAETVKKKAKEFLKYINPKLPGLLELEYEGFYVRGFFVTKKKYAVIDEEGKITTRGLEIVRRDWSEIAKETQARVLEAILKHGDVEEAVRIVKEVTEKLSKYEVPPEKLVIHEQITRDLRDYKATGPHVAVAKRLAARGVKIRPGTVISYIVLKGSGRIGDRAIPADEFDPTKHRYDAEYYIENQVLPAVERILKAFGYRKEDLRYQKTKQVGLGAWLKVKGKK
With B2, the “product incorporating the 3′-O-propargyl dNTP” value in assay [3] (co-factor Mg^2+) was “−”; in assay [3] (co-factor Mn^2+), “+”.

Values taken from US10995363B2, “Nucleotide analogs” (ABBOTT MOLECULAR INC., priority 2013, dated 2021).
